From patent publication US12448389B2, “BRM targeting compounds and associated methods of use” (Prelude Therapeutics Incorporated, priority 2020, dated 2025)

What was measured:
SMARCA2-HiBiT = molecular target: T1, SMARCA2-HiBiT (Homo sapiens, UniProt P51531); experiment: SMARCA2 HiBiT degradation assay in HeLa cells; type: cell-based; settings: 18 hours incubation; for DC50: read-out: HeLa_HiBit-SM2 DC50; for Dmax: HeLa, read-out: HeLa-HiBit-SM2 Dmax (%)
T1 construct: SMARCA2-HiBiT knock-in Hela monoclonal cell (CS302366); host or cells: HeLa monoclonal knock-in line (CRISPR HiBiT knock-in at the endogenous locus, heterozygous)
T1 sequence (P51531 whole entry): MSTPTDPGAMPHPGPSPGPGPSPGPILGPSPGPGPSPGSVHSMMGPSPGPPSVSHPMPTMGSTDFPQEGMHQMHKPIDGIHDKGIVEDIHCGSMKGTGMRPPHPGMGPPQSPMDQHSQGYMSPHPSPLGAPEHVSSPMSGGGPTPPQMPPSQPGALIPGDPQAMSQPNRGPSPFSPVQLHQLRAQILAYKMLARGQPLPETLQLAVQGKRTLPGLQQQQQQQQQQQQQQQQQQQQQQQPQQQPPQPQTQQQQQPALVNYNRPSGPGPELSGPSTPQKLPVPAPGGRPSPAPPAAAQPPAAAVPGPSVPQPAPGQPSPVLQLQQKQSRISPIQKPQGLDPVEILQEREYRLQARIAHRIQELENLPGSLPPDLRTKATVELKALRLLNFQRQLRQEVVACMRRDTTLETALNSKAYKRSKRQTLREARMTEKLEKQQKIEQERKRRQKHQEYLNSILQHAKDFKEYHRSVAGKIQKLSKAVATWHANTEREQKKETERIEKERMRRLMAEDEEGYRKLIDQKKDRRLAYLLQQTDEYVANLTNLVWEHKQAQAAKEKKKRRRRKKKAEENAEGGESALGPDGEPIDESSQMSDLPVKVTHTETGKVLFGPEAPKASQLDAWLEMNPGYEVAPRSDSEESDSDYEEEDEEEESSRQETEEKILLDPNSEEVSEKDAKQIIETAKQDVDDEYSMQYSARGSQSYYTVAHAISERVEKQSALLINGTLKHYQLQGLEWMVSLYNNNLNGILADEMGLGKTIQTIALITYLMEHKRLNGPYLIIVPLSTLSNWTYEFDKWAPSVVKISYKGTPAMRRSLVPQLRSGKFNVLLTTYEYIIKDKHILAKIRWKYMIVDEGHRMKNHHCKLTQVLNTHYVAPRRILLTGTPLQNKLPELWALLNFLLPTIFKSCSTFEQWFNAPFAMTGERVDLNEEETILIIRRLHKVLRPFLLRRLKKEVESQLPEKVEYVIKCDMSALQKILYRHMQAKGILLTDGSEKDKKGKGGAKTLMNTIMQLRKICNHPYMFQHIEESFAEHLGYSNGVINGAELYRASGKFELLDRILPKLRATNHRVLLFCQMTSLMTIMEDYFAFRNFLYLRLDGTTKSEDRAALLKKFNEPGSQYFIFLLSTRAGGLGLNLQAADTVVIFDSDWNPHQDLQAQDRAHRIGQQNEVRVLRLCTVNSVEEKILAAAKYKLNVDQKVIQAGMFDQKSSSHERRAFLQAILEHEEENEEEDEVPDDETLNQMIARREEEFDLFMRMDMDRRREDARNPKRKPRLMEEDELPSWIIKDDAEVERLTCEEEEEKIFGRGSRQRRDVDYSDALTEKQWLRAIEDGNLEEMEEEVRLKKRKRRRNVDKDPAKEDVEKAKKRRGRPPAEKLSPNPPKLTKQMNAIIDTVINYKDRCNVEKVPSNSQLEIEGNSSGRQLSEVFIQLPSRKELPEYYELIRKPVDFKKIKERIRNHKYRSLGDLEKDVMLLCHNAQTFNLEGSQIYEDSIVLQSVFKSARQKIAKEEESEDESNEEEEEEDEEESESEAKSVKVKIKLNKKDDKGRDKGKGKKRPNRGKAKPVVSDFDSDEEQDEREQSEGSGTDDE
Procedure, shortened: (§1)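 HeLa monoclonal lines with heterozygous HiBiT knock-in were seeded at 2500 cells/well in EMEM with 10% FBS and treated with compound for 18 h at 37 °C. Remaining tagged protein was measured by Nano-Glo HiBiT lytic luminescence after 30–60 min at RT, and values came from curve fitting.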

SMARCA4-HiBiT = molecular target: T2, SMARCA4-HiBiT (Homo sapiens, UniProt P51532); experiment: SMARCA4 HiBiT degradation assay in HeLa cells; type: cell-based; settings: 18 hours incubation; for DC50: read-out: HeLa-HiBit-SM4 DC50; for Dmax: HeLa, read-out: HeLa-HiBit-SM4 Dmax (%)
T2 construct: SMARCA4-HiBiT knock-in Hela monoclonal cell (CS3023226); host or cells: HeLa monoclonal knock-in line (CRISPR HiBiT knock-in at the endogenous locus, heterozygous)
T2 sequence (P51532 whole entry): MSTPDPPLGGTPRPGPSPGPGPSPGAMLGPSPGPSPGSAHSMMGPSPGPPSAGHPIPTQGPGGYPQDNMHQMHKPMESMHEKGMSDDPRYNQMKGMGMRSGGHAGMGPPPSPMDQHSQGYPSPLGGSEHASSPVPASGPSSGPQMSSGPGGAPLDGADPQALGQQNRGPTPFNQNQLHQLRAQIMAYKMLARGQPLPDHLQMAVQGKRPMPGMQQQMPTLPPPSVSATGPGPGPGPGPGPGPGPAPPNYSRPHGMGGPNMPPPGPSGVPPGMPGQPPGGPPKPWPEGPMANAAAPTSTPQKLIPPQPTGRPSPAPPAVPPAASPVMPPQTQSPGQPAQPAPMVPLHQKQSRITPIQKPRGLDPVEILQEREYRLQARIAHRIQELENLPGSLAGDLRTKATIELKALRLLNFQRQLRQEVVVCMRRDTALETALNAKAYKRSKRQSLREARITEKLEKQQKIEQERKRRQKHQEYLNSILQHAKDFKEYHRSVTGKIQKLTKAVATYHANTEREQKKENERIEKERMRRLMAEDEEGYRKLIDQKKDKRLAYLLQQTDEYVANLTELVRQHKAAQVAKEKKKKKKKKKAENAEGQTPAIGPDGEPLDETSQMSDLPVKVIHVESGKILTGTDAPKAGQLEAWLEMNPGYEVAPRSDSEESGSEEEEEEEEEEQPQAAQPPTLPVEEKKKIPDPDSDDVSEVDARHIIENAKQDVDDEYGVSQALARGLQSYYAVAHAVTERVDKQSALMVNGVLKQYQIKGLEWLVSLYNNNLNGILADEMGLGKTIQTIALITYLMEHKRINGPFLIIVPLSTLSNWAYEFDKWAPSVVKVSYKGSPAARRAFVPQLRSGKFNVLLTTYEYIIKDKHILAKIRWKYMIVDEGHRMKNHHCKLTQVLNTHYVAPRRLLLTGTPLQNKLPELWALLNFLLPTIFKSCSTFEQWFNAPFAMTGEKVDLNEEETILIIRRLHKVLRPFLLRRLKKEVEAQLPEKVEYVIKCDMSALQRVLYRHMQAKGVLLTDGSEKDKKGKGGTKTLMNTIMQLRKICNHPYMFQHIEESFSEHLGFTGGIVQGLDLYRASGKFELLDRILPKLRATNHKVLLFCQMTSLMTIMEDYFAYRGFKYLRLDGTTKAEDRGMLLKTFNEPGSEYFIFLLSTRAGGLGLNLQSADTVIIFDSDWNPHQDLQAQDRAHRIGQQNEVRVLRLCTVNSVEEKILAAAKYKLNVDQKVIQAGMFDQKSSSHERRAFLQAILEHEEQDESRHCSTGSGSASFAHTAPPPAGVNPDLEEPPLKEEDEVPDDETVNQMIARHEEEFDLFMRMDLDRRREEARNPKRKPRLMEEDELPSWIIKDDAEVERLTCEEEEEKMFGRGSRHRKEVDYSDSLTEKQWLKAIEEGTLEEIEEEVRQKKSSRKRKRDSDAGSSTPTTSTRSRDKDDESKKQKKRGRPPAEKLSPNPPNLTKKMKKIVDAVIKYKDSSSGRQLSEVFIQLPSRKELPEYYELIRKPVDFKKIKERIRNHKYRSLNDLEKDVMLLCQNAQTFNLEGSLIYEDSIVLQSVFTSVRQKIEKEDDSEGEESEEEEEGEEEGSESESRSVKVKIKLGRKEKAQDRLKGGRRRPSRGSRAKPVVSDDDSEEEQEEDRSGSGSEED
Procedure, shortened: as §1

| DC50 (SMARCA2-HiBiT) [nM] | Dmax (SMARCA2-HiBiT) [%] | DC50 (SMARCA4-HiBiT) [nM] | Dmax (SMARCA4-HiBiT) [%] | HeLa-HiBit-SM2 Dmax (%) (SMARCA2-HiBiT) | HeLa-HiBit-SM4 Dmax (%) (SMARCA4-HiBiT) | Structure (SMILES) |
| --- | --- | --- | --- | --- | --- | --- |
| < 10 | 75 to 85 | < 10 | 75 to 85 | – | – | O=C1CCC(N2C(=O)c3ccc(N4CCC(CNC56CCC(C(=O)N7CCN8c9cc(-c%10ccccc%10O)nnc9NC[C@H]8C7)(CC5)CC6)CC4)cc3C2=O)C(=O)N1 (stereo partly drawn) [Example 81, 2-(2,6-dioxopiperidin-3-yl)-5-(4-(((4-((S)-2-(2-hydroxyphenyl)-6,6a,7,8,9,10-hexahydro-5H-pyrazino[1′,2′:4,5]pyrazino[2,3-c]pyridazine-8-carbonyl)bicyclo[2.2.2]octan-1-yl)amino)methyl)piperidin-1-yl)isoindoline-1dione] |
| < 10 | > 85 | < 10 | 75 to 85 | – | – | O=C1CCC(N2Cc3ccc(N4CCC(CN5CCC(OC(=O)N6CCN7c8cc(-c9ccccc9O)nnc8NC[C@H]7C6)CC5)CC4)cc3C2=O)C(=O)N1 (stereo partly drawn) [Example 85, l-((l-(2-(2,6-dioxopiperidin-3-yl)-3-oxoisoindolin-5-yl)piperidin-4-yl)methyl)piperidin-4-yl (6aS)-2-(2-hydroxyphenyl)-5,6,6a,7,9,10-hexahydro-8H-pyrazino[1′,2′:4,5]pyrazino[2,3-c]pyridazine-8-carboxylate] |
| < 10 | – | < 10 | – | A (A=Dmax>85%) | A (A=Dmax>85%) | O=C1CCC(N2C(=O)c3ccc(N4CC[C@@H](CN5C[C@@H]6[C@H](C5)[C@H]6CN5CCN6c7cc(-c8ccccc8O)nnc7NC[C@H]6C5)[C@H](F)C4)cc3C2=O)C(=O)N1 (stereo partly drawn) [Example 201, 2-(2,6-dioxopiperidin-3-yl)-5-[(3S,4S)-3-fluoro-4-[[(1S,5R)-6-[[(10S)-4-(2-hydroxyphenyl)-1,5,6,8,12-pentazatricyclo [8.4.0.02,7]tetradeca-2(7),3,5-trien-12-yl]methyl]-3-azabicyclo[3.1.0]hexan-3-yl]methyl]piperidin-1-yl]isoindole-1,3-dione] |
| < 10 | 75 to 85 | 10 to 100 | 50 to 75 | – | – | O=C1CCC(N2C(=O)c3ccc(N4CC[C@@H]5CN(C6CCC(C(=O)N7CCN8c9cc(-c%10ccccc%10O)nnc9NC[C@H]8C7)CC6)C[C@H]5C4)cc3C2=O)C(=O)N1 (stereo partly drawn) [Example 97, 2-(2,6-dioxopiperidin-3-yl)-5-((3aS,7aS)-2-(4-((S)-2-(2-hydroxyphenyl)-6,6a,7,8,9,10-hexahydro-5H-pyrazino[1′,2′:4,5]pyrazino[2,3-c]pyridazine-8-carbonyl)cyclohexyl)octahydro-5H-pyrrolo[3,4-c]pyridin-5-yl) isoindoline-1,3-dione] |
| < 10 | 50 to 75 | 10 to 100 | 50 to 75 | – | – | O=C1CCC(N2Cc3ccc(N4CCOC(CN5CCN(C(=O)N6CCN7c8cc(-c9ccccc9O)nnc8NC[C@H]7C6)CC5)C4)cc3C2=O)C(=O)N1 (stereo partly drawn) [Example 111, 3-(6-(2-((4-((S)-2-(2-hydroxyphenyl)-6,6a,7,8,9,10-hexahydro-5H-pyrazino[1′,2′:4,5]pyrazino[2,3-c]pyridazine-8-carbonyl)piperazin-1-yl)methyl)morpholino)-1-oxoisoindolin-2-yl)piperidine-2,6-dione] |
| < 10 | > 85 | 10 to 100 | 50 to 75 | – | – | C[C@@H]1C[C@H](CN2C[C@@H]3[C@H](C2)[C@H]3CN2CCN3c4cc(-c5ccccc5O)nnc4NC[C@H]3C2)CCN1c1cc2c(cc1F)C(=O)N(C1CCC(=O)NC1=O)C2=O (stereo partly shown) [Example 176] |
| < 10 | > 85 | < 10 | 75 to 85 | – | – | O=C1CCC(N2C(=O)c3ccc(N4CC5(CC(N6C[C@@H]7[C@@H](CN8CCN9c%10cc(-c%11ccccc%11O)nnc%10NC[C@H]9C8)[C@@H]7C6)C5)C4)cc3C2=O)C(=O)N1 (stereo partly drawn) [Example 259, 2-(2,6-dioxopiperidin-3-yl)-5-(6-((1R,5S,6s)-6-(((S)-2-(2-hydroxyphenyl)-5,6,6a,7,9,10-hexahydro-8H-pyrazino[1′,2′:4,5]pyrazino[2,3-c]pyridazin-8-yl)methyl)-3-azabicyclo[3.1,0]hexan-3-yl)-2-azaspiro[3.3]heptan-2-yl)isoindoline-1,3-dione] |
| < 10 | > 85 | < 10 | 75 to 85 | – | – | CC1CN(C(=O)N2CCN3c4cc(-c5ccccc5O)nnc4NC[C@H]3C2)CCN1CC1CCN(c2ccc3c(c2)C(=O)N(C2CCC(=O)NC2=O)C3)CC1 (stereo partly drawn) [Example 106, 3-(6-(4-((4-((S)-2-(2-hydroxyphenyl)-6,6a,7,8,9,10-hexahydro-5H-pyrazino[1′,2′:4,5]pyrazino[2,3-c]pyridazine-8-carbonyl)-2-methylpiperazin-1-yl)methyl)piperidin-1-yl)-1-oxoisoindolin-2-yl)piperidine-2,6-dione] |
| < 10 | > 85 | < 10 | > 85 | – | – | O=C1CCC(N2C(=O)c3ccc(N4CCC(N[C@H]5C[C@@H](CN6CCN7c8cc(-c9ccccc9O)nnc8NC[C@H]7C6)C5)CC4)cc3C2=O)C(=O)N1 (stereo partly drawn) [Example 76, 2-(2,6-dioxopiperidin-3-yl)-5-(4-(((1R,3s)-3-(((S)-2-(2-hydroxyphenyl)-5,6,6a,7,9,10-hexahydro-8H-pyrazino[1′,2′:4,5]pyrazino[2,3-c]pyridazin-8-yl)methyl)cyclobutyl)amino)piperidin-1-yl)isoindoline-1,3-dione] |
| < 10 | 75 to 85 | < 10 | 75 to 85 | – | – | O=C1CCC(N2C(=O)c3ccc(Nc4ccc(N5CCC(N6CCN7c8cc(-c9ccccc9O)nnc8NC[C@H]7C6)CC5)cc4)cc3C2=O)C(=O)N1 (stereo partly drawn) [Example 240, 2-(2,6-dioxopiperidin-3-yl)-5-((4-(4-((S)-2-(2-hydroxyphenyl)-5,6,6a,7,9,10-hexahydro-8H-pyrazino[1′,2′:4,5]pyrazino[2,3-c]pyridazin-8-yl)piperidin-1-yl)phenyl)amino) isoindoline-1,3-dione] |
| < 10 | 75 to 85 | < 10 | 50 to 75 | – | – | C[C@H]1CN(CC2CCN(c3ccc4c(c3)C(=O)N(C3CCC(=O)NC3=O)C4=O)CC2)CCN1C(=O)N1CCN2c3cc(-c4ccccc4O)nnc3NC[C@H]2C1 (stereo partly drawn) [Example 116, 2-(2,6-dioxopiperidin-3-yl)-5-(4-(((S)-4-((S)-2-(2-hydroxyphenyl)-6,6a,7,8,9,10-hexahydro-5H-pyrazino[1′,2′:4,5]pyrazino[2,3-c]pyridazine-8-carbonyl)-3-methyl-piperazin-1-yl)methyl)piperidin-1-yl)isoindoline-1,3-dione] |
| < 10 | 75 to 85 | < 10 | 75 to 85 | – | – | CC(C)(C)C(=O)OCN1C(=O)CCC(N2C(=O)c3cccc(N4CCC(N5CCC(N6CCN7c8cc(-c9ccccc9O)nnc8NC[C@H]7C6)CC5)CC4)c3C2=O)C1=O (stereo partly drawn) [Example 123, (3-(4-(4-((S)-2-(2-hydroxyphenyl)-5,6,6a,7,9,10-hexahydro-811-pyrazino [1′,2′:4,5]pyrazino[2,3-c]pyridazin-8-yl)-[1,4′-bipiperidin]-1′-yl)-1,3-dioxoisoindolin-2-yl)-2,6-dioxopiperidin-1-yl)methyl pivalate] |
| < 10 | > 85 | < 10 | > 85 | – | – | O=C1CCC(N2C(=O)c3ccc(N4CCC(CN5CCC(CN6CCN7c8cc(-c9ccccc9O)nnc8NC[C@H]7C6)CC5)CC4)cc3C2=O)C(=O)N1COP(=O)(O)O (stereo partly drawn) [Example 129, (3-(5-(4-((4-(((S)-2-(2-hydroxyphenyl)-5,6,6a,7,9,10-hexahydro-8H-pyrazino[1′,2′:4,5]pyrazino[2,3-c]pyridazin-8-yl)methyl)piperidin-1-yl)methyl)piperidin-1-yl)-1,3-dioxoisoindolin-2-yl)-2,6-dioxopiperidin-1-yl)methyl) dihydrogen phosphate] |
| < 10 | > 85 | < 10 | > 85 | – | – | O=C1CCC(N2C(=O)c3ccc(N4CCC(CN5CCC(CN6CCN7c8cc(-c9ccccc9O)nnc8NC[C@H]7C6)CC5)CC4)cc3C2=O)C(=O)N1 (stereo partly drawn) [Example 31, 2-(2,6-dioxopiperidin-3-yl)-5-(4-((4-(((S)-2-(2-hydroxyphenyl)-5,6,6a,7,9,10-hexahydro-8H-pyrazino[1′,2′:4,5]pyrazino[2,3-c]pyridazin-8-yl)methyl)piperidin-1-yl)methyl)piperidin-1-yl)isoindoline-1,3-dione] |
| < 10 | > 85 | < 10 | > 85 | – | – | CC1(CN2CCN3c4cc(-c5ccccc5O)nnc4NC[C@H]3C2)CCN(CC2CCN(c3ccc4c(c3)C(=O)N(C3CCC(=O)NC3=O)C4=O)CC2)CC1 (stereo partly drawn) [Example 37, 2-(2,6-dioxopiperidin-3-yl)-5-(4-((4-(((S)-2-(2-hydroxyphenyl)-5,6,6a,7,9,10-hexahydro-8H-pyrazino[1′,2′:4,5]pyrazino[2,3-c]pyridazin-8-yl)methyl)-4-methylpiperidin-1-yl)methyl)piperidin-1-yl)isoindoline-1,3-dione] |

| Structure (SMILES) | DC50 (SMARCA2-HiBiT) [nM] | Dmax (SMARCA2-HiBiT) [%] | DC50 (SMARCA4-HiBiT) [nM] | Dmax (SMARCA4-HiBiT) [%] | HeLa-HiBit-SM2 Dmax (%) (SMARCA2-HiBiT) | HeLa-HiBit-SM4 Dmax (%) (SMARCA4-HiBiT) |
| --- | --- | --- | --- | --- | --- | --- |
| O=C1CCC(N2C(=O)c3ccc(N4CCC(CN5CC6CC(C5)C6CN5CCN6c7cc(-c8ccccc8O)nnc7NC[C@H]6C5)CC4)cc3C2=O)C(=O)N1 (stereo partly drawn) [Example 39, 2-(2,6-dioxopiperidin-3-yl)-5-(4-((6-(((S)-2-(2-hydroxyphenyl)-5,6,6a,7,9,10-hexahydro-8H-pyrazino[1′,2′:4,5]pyrazino[2,3-c]pyridazin-8-yl)methyl)-3-azabicyclo[3.1.1]heptan-3-yl)methyl)piperidin-1-yl)isoindoline-1,3-dione] | < 10 | > 85 | < 10 | 50 to 75 | – | – |
